From patent US9486506B2 (Novo Nordisk A/S, priority 2011, dated 2016) come the findings set out here.

Numbered stars: 1 amine (or outer) side, 2 acyl side, 3 side chain; on linkers, the order of the positions; unused ones are H or OH. Side chains are listed from the residue outwards. Peptide text beside a SMILES is read from it. * marks the point of attachment. C18 diacid = O=C(O)CCCCCCCCCCCCCCCCC(=O)*; γGlu = O=C(O)[C@H](CCC(=O)[*:2])N[*:1]; AEEA = NCCOCCOCC(=O)O

The nature of data set [1]: Assay (X) Chemical stability assessment by RP-UPLC. Format: physicochemical. The settings on record: pH 8.15, 14 days at 37° C. vs 5° C., 333 μM.
For a further data set, the target named is T1, glucagon receptor (Homo sapiens, UniProt P47871).
T1 construct: expressed in transfected cells
T1 sequence (P47871 26-477): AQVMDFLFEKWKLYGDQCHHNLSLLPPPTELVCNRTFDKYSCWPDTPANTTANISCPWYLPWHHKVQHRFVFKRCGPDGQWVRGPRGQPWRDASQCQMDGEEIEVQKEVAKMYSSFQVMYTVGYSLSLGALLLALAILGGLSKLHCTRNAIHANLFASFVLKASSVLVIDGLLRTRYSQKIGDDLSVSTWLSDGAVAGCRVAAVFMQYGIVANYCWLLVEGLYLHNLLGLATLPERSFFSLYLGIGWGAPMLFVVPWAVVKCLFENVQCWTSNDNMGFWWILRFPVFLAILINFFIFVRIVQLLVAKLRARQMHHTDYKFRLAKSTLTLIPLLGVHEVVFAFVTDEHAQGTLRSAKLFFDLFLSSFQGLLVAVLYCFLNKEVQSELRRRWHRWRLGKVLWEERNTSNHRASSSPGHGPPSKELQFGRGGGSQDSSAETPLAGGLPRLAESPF
Briefly: Assay (I) Glucagon activity (cAMP biosensor, FLIPR). It counts as cell-based.

As for `CC(C)C[C@H](NC(=O)[C@H](CC(=O)O)NC(=O)[C@H](CC(C)C)NC(=O)[C@H](Cc1ccc(O)cc1)NC(=O)[C@H](CCCNC(=N)N)NC(=O)[C@H](CO)NC(=O)[C@H](Cc1ccc(O)cc1)NC(=O)[C@H](CC(=O)O)NC(=O)[C@H](CO)NC(=O)[C@@H](NC(=O)[C@H](Cc1ccccc1)NC(=O)[C@@H](NC(=O)CNC(=O)[C@H](CCC(N)=O)NC(=O)[C@H](CO)NC(=O)[C@@H](N)Cc1c[nH]cn1)[C@@H](C)O)[C@@H](C)O)C(=O)N[C@@H](CCCNC(=N)N)C(=O)N[C@@H](CCCNC(=N)N)C(=O)N[C@@H](C)C(=O)N[C@@H](CCC(N)=O)C(=O)N[C@@H](CC(=O)O)C(=O)N[C@@H](Cc1ccccc1)C(=O)N[C@H](C(=O)N[C@@H](CCCCNC(=O)CC[C@H](NC(=O)CC[C@H](NC(=O)CC[C@H](NC(=O)COCCOCCNC(=O)COCCOCCNC(=O)CC[C@H](NC(=O)CCCCCCCCCCCCCCCCC(=O)O)C(=O)O)C(=O)O)C(=O)O)C(=O)O)C(=O)N[C@@H](Cc1c[nH]c2ccccc12)C(=O)N[C@@H](CC(C)C)C(=O)N[C@@H](CC(C)C)C(=O)N[C@@H](CO)C(=O)N[C@H](C(=O)O)[C@@H](C)O)C(C)C` [Example 45, N^ε24-[(4S)-4-carboxy-4-[[(4S)-4-carboxy-4-[[(4S)-4-carboxy-4-[[2-[2-[2-[[2-[2-[2-[[(4S)-4-carboxy-4-(17-carboxyheptadecanoylamino)butanoyl]amino]ethoxy]ethoxy]acetyl]amino]ethoxy]ethoxy]acetyl]amino]butanoyl]amino]butanoyl]amino]butanoyl]-[Arg12,Leu16,Lys24,Leu27,Ser28]-Glucagon] (H-HSQGTFTSDYSRYLDLRRAQDFVK([γGlu-γGlu-γGlu-AEEA-AEEA-γGlu-C18 diacid])WLLST-OH), the “Chemical stability [Purity loss/14 days 37 C.]” value in data set [1] amounted to 3.3%. Besides, the EC50 (usually the concentration needed to bring the measured effect to its halfway point) at glucagon receptor is 0.243 nM.
The like results for `CC(C)C[C@H](NC(=O)[C@H](Cc1ccc(O)cc1)NC(=O)[C@H](CCCCN)NC(=O)[C@H](CO)NC(=O)[C@H](Cc1ccc(O)cc1)NC(=O)[C@H](CC(=O)O)NC(=O)[C@H](CO)NC(=O)[C@@H](NC(=O)[C@H](Cc1ccccc1)NC(=O)[C@@H](NC(=O)CNC(=O)[C@H](CCC(N)=O)NC(=O)[C@H](CO)NC(=O)[C@@H](N)Cc1c[nH]cn1)[C@@H](C)O)[C@@H](C)O)C(=O)N[C@@H](CCC(=O)O)C(=O)N[C@@H](CO)C(=O)N[C@@H](CCCNC(=N)N)C(=O)N[C@@H](CCCNC(=N)N)C(=O)N[C@@H](C)C(=O)N[C@@H](CCC(N)=O)C(=O)N[C@@H](CCC(=O)O)C(=O)N[C@@H](Cc1ccccc1)C(=O)N[C@H](C(=O)N[C@@H](CCCCNC(=O)CC[C@H](NC(=O)CC[C@H](NC(=O)CC[C@H](NC(=O)CC[C@H](NC(=O)CCCCCCCCCCCCCCCCC(=O)O)C(=O)O)C(=O)O)C(=O)O)C(=O)O)C(=O)N[C@@H](Cc1c[nH]c2ccccc12)C(=O)N[C@@H](CC(C)C)C(=O)N[C@@H](CC(C)C)C(=O)N[C@@H](CO)C(=O)N[C@H](C(=O)O)[C@@H](C)O)C(C)C` [Example 49, N^ε24-[(4S)-4-carboxy-4-[[(4S)-4-carboxy-4-[[(4S)-4-carboxy-4-[[(4S)-4-carboxy-4-(17-carboxyheptadecanoylamino)butanoyl]amino]butanoyl]amino]butanoyl]amino]butanoyl]-[Glu15,Glu21,Lys24,Leu27,Ser28]-Glucagon] (H-HSQGTFTSDYSKYLESRRAQEFVK([γGlu-γGlu-γGlu-γGlu-C18 diacid])WLLST-OH) were, in that order, 6.8% and 0.169 nM.
The like results for `CC(C)C[C@H](NC(=O)[C@H](Cc1ccc(O)cc1)NC(=O)[C@H](CCCCN)NC(=O)[C@H](CO)NC(=O)[C@@H](NC(=O)[C@H](CC(=O)O)NC(=O)[C@H](CO)NC(=O)[C@@H](NC(=O)[C@H](Cc1ccccc1)NC(=O)[C@@H](NC(=O)CNC(=O)[C@H](CCC(N)=O)NC(=O)[C@H](CO)NC(=O)[C@@H](N)Cc1c[nH]cn1)[C@@H](C)O)[C@@H](C)O)C(C)C)C(=O)N[C@@H](CCC(=O)O)C(=O)N[C@@H](CO)C(=O)N[C@@H](CCCNC(=N)N)C(=O)N[C@@H](CCCNC(=N)N)C(=O)N[C@@H](C)C(=O)N[C@@H](CCC(N)=O)C(=O)N[C@@H](CCC(=O)O)C(=O)N[C@@H](Cc1ccccc1)C(=O)N[C@H](C(=O)N[C@@H](CCCCNC(=O)CC[C@H](NC(=O)CC[C@H](NC(=O)CC[C@H](NC(=O)CC[C@H](NC(=O)CCCCCCCCCCCCCCCCC(=O)O)C(=O)O)C(=O)O)C(=O)O)C(=O)O)C(=O)N[C@@H](Cc1c[nH]c2ccccc12)C(=O)N[C@@H](CC(C)C)C(=O)N[C@@H](CC(C)C)C(=O)N[C@@H](CO)C(=O)N[C@H](C(=O)O)[C@@H](C)O)C(C)C` [Example 50, N^ε24-[(4S)-4-carboxy-4-[[(4S)-4-carboxy-4-[[(4S)-4-carboxy-4-[[(4S)-4-carboxy-4-(17-carboxyheptadecanoylamino)butanoyl]amino]butanoyl]amino]butanoyl]amino]butanoy]-[Val10,Glu15,Glu21,Lys24,Leu27,Ser28]-Glucagon] (H-HSQGTFTSDVSKYLESRRAQEFVK([γGlu-γGlu-γGlu-γGlu-C18 diacid])WLLST-OH) were, in that order, 4.8% and 0.118 nM.
For `CC(C)C[C@H](NC(=O)[C@H](Cc1ccc(O)cc1)NC(=O)[C@H](CCCNC(=N)N)NC(=O)[C@H](CO)NC(=O)[C@H](Cc1ccc(O)cc1)NC(=O)[C@H](CC(=O)O)NC(=O)[C@H](CO)NC(=O)[C@@H](NC(=O)[C@H](Cc1ccccc1)NC(=O)[C@@H](NC(=O)CNC(=O)[C@H](CCC(N)=O)NC(=O)[C@H](CO)NC(=O)[C@@H](N)Cc1c[nH]cn1)[C@@H](C)O)[C@@H](C)O)C(=O)N[C@@H](CCC(=O)O)C(=O)N[C@@H](CO)C(=O)N[C@@H](CCCNC(=N)N)C(=O)N[C@@H](CCCNC(=N)N)C(=O)N[C@@H](C)C(=O)N[C@@H](CCC(N)=O)C(=O)N[C@@H](CCC(=O)O)C(=O)N[C@@H](Cc1ccccc1)C(=O)N[C@H](C(=O)N[C@@H](CCCCNC(=O)CC[C@H](NC(=O)CC[C@H](NC(=O)CC[C@H](NC(=O)CC[C@H](NC(=O)CCCCCCCCCCCCCCCCC(=O)O)C(=O)O)C(=O)O)C(=O)O)C(=O)O)C(=O)N[C@@H](Cc1c[nH]c2ccccc12)C(=O)N[C@@H](CC(C)C)C(=O)N[C@@H](CC(C)C)C(=O)N[C@@H](CO)C(=O)N[C@H](C(=O)O)[C@@H](C)O)C(C)C` [Example 51, N^ε24-[(4S)-4-carboxy-4-[[(4S)-4-carboxy-4-[[(4S)-4-carboxy-4-[[(4S)-4-carboxy-4-(17-carboxyheptadecanoylamino)butanoyl]amino]butanoyl]amino]butanoyl]amino]butanoyl]-[Arg12,Glu15,Glu21,Lys24,Leu27,Ser28]-Glucagon] (H-HSQGTFTSDYSRYLESRRAQEFVK([γGlu-γGlu-γGlu-γGlu-C18 diacid])WLLST-OH), the “Chemical stability [Purity loss/14 days 37 C.]” value in data set [1] is 5.7%. Moreover, the response at glucagon receptor was half-maximal at 0.148 nM (EC50).
On to `CC(C)C[C@H](NC(=O)[C@H](Cc1ccc(O)cc1)NC(=O)[C@H](CCCNC(=N)N)NC(=O)[C@H](CO)NC(=O)[C@H](Cc1ccc(O)cc1)NC(=O)[C@H](CC(=O)O)NC(=O)[C@H](CO)NC(=O)[C@@H](NC(=O)[C@H](Cc1ccccc1)NC(=O)[C@@H](NC(=O)CNC(=O)[C@H](CCC(N)=O)NC(=O)[C@H](CO)NC(=O)[C@@H](N)Cc1c[nH]cn1)[C@@H](C)O)[C@@H](C)O)C(=O)N[C@@H](CCC(=O)O)C(=O)N[C@@H](CO)C(=O)N[C@@H](CCCNC(=N)N)C(=O)N[C@@H](CCCNC(=N)N)C(=O)N[C@@H](C)C(=O)N[C@@H](CCC(N)=O)C(=O)N[C@@H](CCC(=O)O)C(=O)N[C@@H](Cc1ccccc1)C(=O)N[C@H](C(=O)N[C@@H](CCCCNC(=O)CC[C@H](NC(=O)CC[C@H](NC(=O)COCCOCCNC(=O)COCCOCCNC(=O)CC[C@H](NC(=O)CCCCCCCCCCCCCCCCC(=O)O)C(=O)O)C(=O)O)C(=O)O)C(=O)N[C@@H](Cc1c[nH]c2ccccc12)C(=O)N[C@@H](CC(C)C)C(=O)N[C@@H](CC(C)C)C(=O)N[C@@H](CO)C(=O)N[C@H](C(=O)O)[C@@H](C)O)C(C)C` [Example 52, N^ε24-[(4S)-4-carboxy-4-[[(4S)-4-carboxy-4-[[2-[2-[2-[[2-[2-[2-[[(4S)-4-carboxy-4-(17-carboxyheptadecanoylamino)butanoyl]amino]ethoxy]ethoxy]acetyl]amino]ethoxy]ethoxy]acetyl]amino]butanoyl]amino]butanoyl]-[Arg12,Glu15,Glu21,Lys24,Leu27,Ser28]-Glucagon] (H-HSQGTFTSDYSRYLESRRAQEFVK([γGlu-γGlu-AEEA-AEEA-γGlu-C18 diacid])WLLST-OH), for which, in data set [1], the “Chemical stability [Purity loss/14 days 37 C.]” value is 6.3%. This compound showed an EC50 on glucagon receptor of 0.289 nM.
The like results for `CC[C@H](C)[C@H](NC(=O)[C@H](CC(=O)O)NC(=O)[C@H](CC(C)C)NC(=O)[C@H](Cc1ccc(O)cc1)NC(=O)[C@H](CCCNC(=N)N)NC(=O)[C@H](CO)NC(=O)[C@H](Cc1ccc(O)cc1)NC(=O)[C@H](CC(=O)O)NC(=O)[C@H](CO)NC(=O)[C@@H](NC(=O)[C@H](Cc1ccccc1)NC(=O)[C@@H](NC(=O)CNC(=O)[C@H](CCC(N)=O)NC(=O)[C@H](CO)NC(=O)[C@@H](N)Cc1c[nH]cn1)[C@@H](C)O)[C@@H](C)O)C(=O)N[C@@H](CCCNC(=N)N)C(=O)N[C@@H](CCCNC(=N)N)C(=O)N[C@@H](C)C(=O)N[C@@H](CCC(N)=O)C(=O)N[C@@H](CCC(=O)O)C(=O)N[C@@H](Cc1ccccc1)C(=O)N[C@H](C(=O)N[C@@H](CCCCNC(=O)CC[C@H](NC(=O)CC[C@H](NC(=O)COCCOCCNC(=O)COCCOCCNC(=O)CC[C@H](NC(=O)CCCCCCCCCCCCCCCCC(=O)O)C(=O)O)C(=O)O)C(=O)O)C(=O)N[C@@H](Cc1c[nH]c2ccccc12)C(=O)N[C@@H](CC(C)C)C(=O)N[C@@H](CCC(=O)O)C(=O)N[C@@H](CO)C(=O)N[C@H](C(=O)O)[C@@H](C)O)C(C)C` [Example 53, N^ε24-[(4S)-4-carboxy-4-[[(4S)-4-carboxy-4-[[2-[2-[2-[[2-[2-[2-[[(4S)-4-carboxy-4-(17-carboxyheptadecanoylamino)butanoyl]amino]ethoxy]ethoxy]acetyl]amino]ethoxy]ethoxy]acetyl]amino]butanoyl]amino]butanoyl]-[Arg12,Ile16,Glu21,Lys24,Glu27,Ser28]-Glucagon] (H-HSQGTFTSDYSRYLDIRRAQEFVK([γGlu-γGlu-AEEA-AEEA-γGlu-C18 diacid])WLEST-OH) were, in that order, 2.5% and 0.099 nM.
